From patent publication US7687434B2, “Method of improving yield and vigor of plants” (Monsanto Technology, LLC, priority 2000, dated 2010)
Converted amounts (≈) assume the structure as drawn.

Tests used:
[1] = tested on: Fusarium solani, var. coeruleum 4-5; test: In vitro inhibition of mycelial growth on silthiopham-amended agar; assay type: cell-based; as to ACTIVITY RATING (0-3): key: 0 = no; 1 = weak; 2 = good; 3 = excellent
Rhizoctonia solani 15-9 = test: as above; assay type: cell-based
[2] = tested on: soybean plants (CSR2121 variety); test: Soybean seed treatment field trial, upper Midwestern United States; assay type: in vivo
[3] = tested on: Fusarium solani, var. pisi 34-2; test: In vitro inhibition of mycelial growth on silthiopham-amended agar; assay type: cell-based; as to ACTIVITY RATING (0-3): key: 0 = no; 1 = weak; 2 = good; 3 = excellent
[4] = tested on: Fusarium oxysporum var. pisi race1 33-11; test: as above; assay type: cell-based; as to ACTIVITY RATING (0-3): key: 0 = no; 1 = weak; 2 = good; 3 = excellent
Colletotrichum trifolii = test: as above; assay type: cell-based; settings: Root rot in alfalfa
[5] = tested on: Fusarium oxysporum var. pisi race1 33-9; test: as above; assay type: cell-based; as to ACTIVITY RATING (0-3): key: 0 = no; 1 = weak; 2 = good; 3 = excellent
[6] = tested on: Fusarium solani, var. pisi 34-1; test: as above; assay type: cell-based; as to ACTIVITY RATING (0-3): key: 0 = no; 1 = weak; 2 = good; 3 = excellent
soybean plants = test: Soybean seed treatment field trial on five farms in South Africa; assay type: in vivo
[7] = tested on: Gaeumannomyces graminis var. tritici; test: In vitro inhibition of mycelial growth on silthiopham-amended agar; assay type: cell-based; as to ACTIVITY RATING (0-3): key: 0 = no; 1 = weak; 2 = good; 3 = excellent
Phytopthera infestans = assay type: cell-based; settings: Late blight
[8] = tested on: Fusarium oxysporum var. pisi race1 33-10; test: In vitro inhibition of mycelial growth on silthiopham-amended agar; assay type: cell-based; as to ACTIVITY RATING (0-3): key: 0 = no; 1 = weak; 2 = good; 3 = excellent
[9] = tested on: microorganisms that are known to be soybean pathogens; test: In vitro inhibition of mycelial growth, summary for soybean pathogens; assay type: cell-based; settings: summary of Table 6
Septoria nodorum = test: In vitro inhibition of mycelial growth on silthiopham-amended agar; assay type: cell-based; settings: Glum blotch; also: key: 0 = no; 1 = weak; 2 = good; 3 = excellent
[10] = tested on: Fusarium solani, var. coeruleum 4-2; test: as above; assay type: cell-based; as to ACTIVITY RATING (0-3): key: 0 = no; 1 = weak; 2 = good; 3 = excellent
Rhizoctonia solani 15-10 = test: as above; assay type: cell-based
[11] = Fusarium solani, 96 h, Czapek-Dox agar, 4 days at 18° C., log-log fit
[12] = seed treatment prior to planting, at plant maturity
[13] = Fusarium oxysporum, 96 h, Czapek-Dox agar, 4 days at 18° C., log-log fit

## C=CCNC(=O)c1c([Si](C)(C)C)sc(C)c1C [Silthiopham, 4,5-dimethyl-N-(2-propenyl)-2-(trimethylsilyl)-3-thiophenecarboxamide]
[1]; [11]
  EC50: 127 µg/mL (≈ 476 µM)
[1]; Root rot
  ACTIVITY RATING (0-3): 0
Rhizoctonia solani 15-9; Rhizoctonia solani, 159, 96 h, Czapek-Dox agar, 4 days at 18° C., log-log fit
  EC50: 162 µg/mL (≈ 607 µM)
Rhizoctonia solani 15-9; Sheath blight
  ACTIVITY RATING (0-3): 0
[2]; FIG. 3, soybean yield
  improvement in yield compared with untreated control beans: no improvement over the untreated control
[2]; FIG. 4
  seed weight increase (beans larger) than untreated control beans: performed comparably with untreated beans
[2]; FIG. 5
  plant height increase (plants taller) than untreated control beans: performed comparably with untreated beans
[2]; percent of canopy closure, 100% is total coverage
  Canopy (% coverage): 78%
[2]; [12]
  Plant Height: 22.8 inches
  Seed Weight: 11.0 gm/100 seeds
[2]; seed treatment prior to planting, determined at plant maturity, adjusted to 13% moisture
  Grain Yield: 36.4 bu/ac
[2]; standard 1-9 scale, 1 worst, 9 best and most vigorous
  Vigor (1 worst-9 best): 6
[3]; [11]
  EC50: 106 µg/mL (≈ 398 µM)
[3]; Root rot
  ACTIVITY RATING (0-3): 0
[4]; Fusarium oxysporum, 96 h
  EC50: 36100 µg/mL (≈ 135000 µM)
[4]; Root rot
  ACTIVITY RATING (0-3): 0
Colletotrichum trifolii
  ACTIVITY RATING (0-3): 0
[5]; [13]
  EC50: 109 µg/mL (≈ 407 µM)
[5]; Root rot
  ACTIVITY RATING (0-3): 0
[6]; [11]
  EC50: 126 µg/mL (≈ 470 µM)
[6]; Root rot
  ACTIVITY RATING (0-3): 0
Soybean plants; Avg. of farms 3-5 (dryland)
  SOYBEAN YIELD: 1949 kg/ha
Soybean plants; Farm 4, dryland, cultivar SNK444, sand clay 12%
  SOYBEAN YIELD: 1844 kg/ha
Soybean plants; Farm 5, dryland, cultivar SNK400, clay 40%
  SOYBEAN YIELD: 2054 kg/ha
Soybean plants; combination vs standard Mollyflo+Bradyrhizobium, silthiopham alone vs non-treated control
  grain yield, statistical comparison: did not significantly differ from the non-treated control
Soybean plants; compared to the standard Mollyflo+inoculant treatment
  visual appearance of vegetative growth: appeared visually greener and more vigorous
Soybean plants; farms 4 and 5, FIGS. 6 and 7, plants in 400-mm rows
  number of nodules on plant roots: did not substantially affect the number of nodules
Soybean plants; farms 4 and 5, FIGS. 8 and 9, 2 meters per plot
  plant weight: no effect on plant weight
Soybean plants; where silthiopham was included in the treatment
  visual appearance of nodules: Nodules visually appeared healthier
[7]; Gaeumannomyces graminis, 96 h, Czapek-Dox agar, 4 days at 18° C., log-log fit
  EC50: 0.001 µg/mL (≈ 0.00374 µM)
[7]; Take-all disease in cereals
  ACTIVITY RATING (0-3): 3
[7]; summary of Table 6
  activity against Gaerumannomyces graminis var. tritici (in words): excellent activity
Phytopthera infestans
  ACTIVITY RATING (0-3): 0
[8]; [13]
  EC50: 112 µg/mL (≈ 421 µM)
[8]; Root rot
  ACTIVITY RATING (0-3): 0
[9]
  activity against soybean pathogens (in words): little or no activity
Septoria nodorum
  ACTIVITY RATING (0-3): 0
[10]; [11]
  EC50: 113 µg/mL (≈ 423 µM)
[10]; Root rot
  ACTIVITY RATING (0-3): 0
Rhizoctonia solani 15-10; Rhizoctonia solani, 1510, 96 h, Czapek-Dox agar, 4 days at 18° C., log-log fit
  EC50: 132 µg/mL (≈ 494 µM)
Rhizoctonia solani 15-10; Sheath blight
  ACTIVITY RATING (0-3): 0
